Experimental findings from patent US20230165252A1, “ACTIVE COMPOUND COMBINATIONS” (Bayer Aktiengesellschaft, priority 2020, published 2023) are described below.

What all share (assay type): cell-based
One assay deals with Botrytis cinerea. The assay is described as follows: in vitro-Test with Botrytis cinerea (microtiter growth inhibition). As to conditions: for Efficacy: applied alone. The protocol: (§1) The degree of efficacy expressed in % is denoted: 0% means an efficacy, which corresponds to that of the control, while an efficacy of 100% means that no disease is observed.
(§2) If the actual fungicidal activity exceeds the calculated value, then the activity of the combination is super-additive, i.e. a synergistic effect exists. In this case, the efficacy, which was actually observed, must be greater than the value for the expected efficacy (E), that was calculated from the abovementioned formula.
(§3) Example: In Vitro-Test with Fungal Microorganisms
(§4) Wells of 96-well microtiter plates are filled with 10 μl of a preparation of test compound or compound combination in methanol+emulsifier alkylaryl-polyglycol-ether. Thereafter, the solvent is evaporated in a hood. At the next step, 100 μl of liquid potato dextrose medium is given into each well, that has been amended with an appropriate concentration of spores or mycelium suspension of the test fungus.
(§5) With the aid of a photometer, the extinction in all wells is measured at the wavelength of 620 nm.
(§6) The microtiter plates are incubated at 20° C. and 85% relative humidity. The inhibition of growth is determined again photometrically 3-5 days after the application. Efficacy is calculated in relation to the untreated control, 0% efficacy means fungal growth as high as in untreated control while 100% efficacy means no fungal growth is measured.

A further assay relates to Parastagonospora nodorum. The assay is described as follows: in vitro-Test with Parastagonospora nodorum (microtiter growth inhibition). Here is the method:
as §1, §2, §3, §4, §5, §6

Assay [1] concerns Ustilago segetum var. avenae. The assay is described as follows: in vitro-Test with Ustilago segetum var. avenae (microtiter growth inhibition). The protocol: as §1, §2, §3, §4, §5, §6
The subject of another assay is Cercospora beticola. The assay is described as follows: in vitro-Test with Cercospora beticola (microtiter growth inhibition). The note with it: alone. Here is the method: as §1, §2, §3, §4, §5, §6
The test system of another assay is Alternaria alternate. Nature of the assay: in vitro-Test with Alternaria alternate (microtiter growth inhibition). The note with it: for Efficacy: applied alone; for Efficacy %: alone. Here is the method:
as §1, §2, §3, §4, §5, §6

In a further assay the test system is Diaporthe citri. The assay is described as follows: in vitro-Test with Diaporthe citri (microtiter growth inhibition). Here is the method:
as §2, §3, §4, §5, §6

A further assay deals with Cordana musae. The assay is described as follows: in vitro-Test with Cordana musae (microtiter growth inhibition). The note with it: single substance. Here is the method: as §1, §2, §3, §4, §5, §6
Where [2] appears, read: Parastagonospora nodorum, compound alone, read-out: Efficacy %.
Where [3] appears, read: Parastagonospora nodorum, compound alone, 20 ppm, read-out: Efficacy %.

Values joined by “and” are separate entries in the source; they are usually repeats but may differ in a detail not shown here. Equal entries are not always repeated.

As for `Cc1ccc(C(F)(F)CNC(=O)c2c(Oc3cccc(C4CC4)c3F)nnc(Cl)c2C)c(C)c1` [(1-655)], the Efficacy % in the assay with Botrytis cinerea (single active at 0.004 ppm) was determined as 0%; in the assay with Botrytis cinerea (single active at 0.020 ppm), 0%; in the assay on Botrytis cinerea (single active at 0.1 ppm), 58%; with Botrytis cinerea (single active at 0.5 ppm) it was 100%.
Take `Cc1ccc(C(F)(F)CNC(=O)c2c(Oc3cccc(C4CC4)c3F)nnc(Cl)c2C)c(Cl)c1` [(1-746)]: the Efficacy % in the assay on Botrytis cinerea (single active at 0.004 ppm) is reported as 0%; in the assay on Botrytis cinerea (single active at 0.020 ppm), 0%; in the assay with Botrytis cinerea (single active at 0.1 ppm) it was 38%; with Botrytis cinerea (single active at 0.5 ppm), 100%.
In the case of `Cc1ccc(C(F)(F)CNC(=O)c2c(Oc3cccc(C4CC4)c3F)nnc(Cl)c2C)cc1C` [(1-749)], the Efficacy % in the assay with Botrytis cinerea (single active at 0.004 ppm) was found to be 0%; in the assay with Botrytis cinerea (single active at 0.020 ppm), 0%; with Botrytis cinerea (single active at 0.1 ppm), 45%; in the assay on Botrytis cinerea (single active at 0.5 ppm), 99%.
In the case of `CCCN(CC)CC1COC2(CCC(C(C)(C)C)CC2)O1` (centres unmarked) [(1.020) spiroxamine], the inhibition of growth at 20 ppm in the assay with Botrytis cinerea (Botrytis cinerea, single active at 20 ppm, read-out: Efficacy %) was found to be 15%. Further, in the assay with Parastagonospora nodorum (setting [2]), the inhibition of growth at 0.8 ppm was 6% and the inhibition of growth at 4 ppm was found to be 0%. For the same molecule, in the assay with Parastagonospora nodorum (setting [3]), the inhibition of growth at 20 ppm worked out at 0%.
As to `CC(O)(Cn1cncn1)c1ccc(Oc2ccc(Cl)cc2)cc1C(F)(F)F` (centres unmarked) [(1.055) mefentrifluconazole], the Efficacy % with Botrytis cinerea (single active at 0.008 ppm) is 0%; with Botrytis cinerea (single active at 0.04 ppm), 9% and 0%; in the assay on Botrytis cinerea (single active at 0.2 ppm) it was 60% and 96%; in the assay with Botrytis cinerea (single active at 1.0 ppm), 100%; in the assay on Parastagonospora nodorum (compound alone, 0.008 ppm) it was 81%; in the assay on Parastagonospora nodorum (compound alone, 0.04 ppm), 98%. The Efficacy % was found to be 99% in the assay with Parastagonospora nodorum (compound alone, 0.2 ppm); 34% in assay [1] (compound alone, 0.008 ppm); 87% in assay [1] (compound alone, 0.04 ppm); 98% in assay [1] (compound alone, 0.2 ppm); 100% in assay [1] (compound alone, 1.0 ppm).
Consider `Cn1cc(C(=O)Nc2ccc(F)cc2-c2ccc(Cl)c(Cl)c2)c(C(F)F)n1` [(2.002) bixafen], for which the Efficacy % was 9% with Botrytis cinerea (single active at 0.008 ppm); 42% in the assay on Botrytis cinerea (single active at 0.04 ppm); 55% and 67% in the assay on Botrytis cinerea (single active at 0.2 ppm); 67% and 73% in the assay on Botrytis cinerea (single active at 1.0 ppm); 3% in the assay with Parastagonospora nodorum (compound alone, 0.04 ppm).
`C[C@@H]1CC(C)(C)c2c(F)ccc(NC(=O)c3cn(C)nc3C(F)F)c21` [(2.028) inpyrfluxam]: the Efficacy % in the assay with Botrytis cinerea (single active at 0.008 ppm) was 0%; with Botrytis cinerea (single active at 0.04 ppm), 48% and 55%; in the assay with Botrytis cinerea (single active at 0.2 ppm) it was 60% and 66%; in the assay on Botrytis cinerea (single active at 1.0 ppm), 63% and 91%; in the assay with Parastagonospora nodorum (compound alone, 0.008 ppm), 0%; in the assay with Parastagonospora nodorum (compound alone, 0.04 ppm), 23%. Moreover, the Efficacy % in the assay with Parastagonospora nodorum (compound alone, 0.2 ppm) came to 33%; with Parastagonospora nodorum (compound alone, 1.0 ppm) it was 33%.
For the molecule `COc1ccnc(C(=O)N[C@H]2COC(=O)[C@H](Cc3ccccc3)[C@@H](OC(=O)C(C)C)[C@H](C)OC2=O)c1OCOC(=O)C(C)C` [(3.025) fenpicoxamid], the Efficacy % is 0% in the assay on Botrytis cinerea (single active at 0.04 ppm); 13% in the assay with Botrytis cinerea (single active at 0.2 ppm); 0% in the assay with Botrytis cinerea (single active at 1.0 ppm); 34% with Botrytis cinerea (single active at 5.0 ppm); 3% in assay [1] (compound alone, 0.04 ppm); 0% in assay [1] (compound alone, 0.2 ppm). Besides, the Efficacy % in assay [1] (compound alone, 1.0 ppm) is given as 0%; in assay [1] (compound alone, 5.0 ppm) it was 0%.
On to `O=C1C2CC=CCC2C(=O)N1SC(Cl)(Cl)Cl` (centres unmarked) [(5.003) captan], for which the inhibition of growth at 4 ppm in the assay with Botrytis cinerea (Botrytis cinerea, single active at 4 ppm, read-out: Efficacy %) is 20%; with Parastagonospora nodorum (setting [2]) it was 54%. Moreover, the inhibition of growth at 20 ppm with Parastagonospora nodorum (setting [3]) stood at 100%.
On to `N#Cc1sc2c(=O)c3ccccc3c(=O)c=2sc1C#N` [(5.010) dithianon], for which the Efficacy % in the assay on Botrytis cinerea (single active at 20 ppm) amounted to 100%. Also, the inhibition of growth at 0.8 ppm in assay [1] (compound alone, 0.8 ppm, read-out: Efficacy %) came to 11%. Further, in assay [1] (compound alone, 20 ppm, read-out: Efficacy %), the inhibition of growth at 20 ppm turned out to be 98%.
As to `O=C1c2ccccc2C(=O)N1SC(Cl)(Cl)Cl` [(5.012) folpet], in the assay on Botrytis cinerea (Botrytis cinerea, single active at 0.08 ppm, read-out: Efficacy %), the inhibition of growth at 0.08 ppm amounted to 0%. The inhibition of growth at 0.4 ppm in the assay with Botrytis cinerea (Botrytis cinerea, single active at 0.4 ppm, read-out: Efficacy %) was 2%. For the same molecule, the Efficacy % in the assay with Botrytis cinerea (single active at 0.4 ppm) came out at 0%. Also, the inhibition of growth at 2 ppm with Parastagonospora nodorum (Parastagonospora nodorum, compound alone, 2 ppm, read-out: Efficacy %) stood at 91%. Besides, the inhibition of growth at 10 ppm with Parastagonospora nodorum (Parastagonospora nodorum, compound alone, 10 ppm, read-out: Efficacy %) turned out to be 100%.
With `Cc1cc(C)nc(Nc2ccccc2)n1` [(7.005) pyrimethanil], the inhibition of growth at 0.8 ppm with Botrytis cinerea (Botrytis cinerea, single active at 0.8 ppm, read-out: Efficacy %) was 78%. Moreover, in the assay with Parastagonospora nodorum (setting [2]), the inhibition of growth at 0.8 ppm stood at 99% and the inhibition of growth at 4 ppm is 100%. Besides, the Efficacy % with Parastagonospora nodorum (compound alone, 20 ppm) is 100%.
As for `Cc1ccc(C(F)(F)CNC(=O)c2c(Oc3cccc(C4CC4)c3F)nnc(Cl)c2C)c(C)c1` [Compound 1-655], the Efficacy % in the assay on Cercospora beticola (0.004 ppm) was 0%; in the assay with Cercospora beticola (0.020 ppm) it was 0%; in the assay with Cercospora beticola (0.1 ppm) it was 0%; in the assay with Cercospora beticola (0.5 ppm) it was 7%.
Regarding `CC1CC(C)(C)c2c(F)ccc(NC(=O)c3cn(C)nc3C(F)F)c21` (centres unmarked) [Compound 2.028, inpyrfluxam], the Efficacy was 0% in the assay on Alternaria alternate (0.008 ppm); 57% with Alternaria alternate (0.04 ppm); 73% with Alternaria alternate (0.2 ppm); 79% in the assay with Alternaria alternate (1.0 ppm); 0% and 7% in the assay with Diaporthe citri (applied alone, 0.008 ppm); 23% in the assay on Diaporthe citri (applied alone, 0.04 ppm). In addition, the Efficacy in the assay on Diaporthe citri (applied alone, 0.2 ppm) was 47% and 32%; in the assay with Diaporthe citri (applied alone, 1.0 ppm), 92% and 94%.
As for `Cn1cc(C(=O)Nc2ccc(F)cc2-c2ccc(Cl)c(Cl)c2)c(C(F)F)n1` [bixafen], the Efficacy % came out at 79% with Alternaria alternate (0.04 ppm), 81% in the assay with Alternaria alternate (0.2 ppm) and 86% in the assay on Alternaria alternate (1.0 ppm). Further, the Efficacy was determined as 34% in the assay on Parastagonospora nodorum (0.2 ppm) and 41% with Parastagonospora nodorum (1.0 ppm).
Take `CCO[PH](=O)[O-].CCO[PH](=O)[O-].CCO[PH](=O)[O-].[Al+3]` [fosetylaluminium]: the Efficacy % in the assay with Alternaria alternate (4 ppm) came out at 8%; in the assay on Alternaria alternate (20 ppm), 27%; in the assay with Alternaria alternate (100 ppm) it was 37%. Further, the Efficacy with Cordana musae (0.8 ppm) worked out at 0%; in the assay on Cordana musae (4 ppm), 12%; in the assay with Cordana musae (20 ppm), 0%; with Diaporthe citri (applied alone, 0.8 ppm) it was 22%; with Diaporthe citri (applied alone, 4 ppm), 31%; in the assay with Diaporthe citri (applied alone, 20 ppm), 4%. In addition, the Efficacy in the assay on Diaporthe citri (applied alone, 100 ppm) is recorded as 0%.
On to `CCCOc1nc2ccc(I)cc2c(=O)n1CCC` [proquinazid], for which the Efficacy % with Alternaria alternate (0.08 ppm), in the assay with Alternaria alternate (0.4 ppm), in the assay with Alternaria alternate (2 ppm) and with Alternaria alternate (10 ppm) was 0% throughout. Besides, the Efficacy in the assay on Botrytis cinerea (0.4 ppm), with Botrytis cinerea (2 ppm), in the assay on Botrytis cinerea (10 ppm), in the assay on Cordana musae (0.080 ppm), in the assay with Cordana musae (0.4 ppm) and in the assay on Cordana musae (2 ppm) was 0% in each case. Further, the Efficacy with Diaporthe citri (applied alone, 0.4 ppm) stood at 11%; in the assay on Diaporthe citri (applied alone, 2 ppm) it was 0%.
Regarding mancozeb [Compound 5.013], the Efficacy in the assay with Alternaria alternate (2 ppm) was 6%; in the assay on Alternaria alternate (10 ppm), 95%; in the assay with Diaporthe citri (0.4 ppm), 1%; with Diaporthe citri (2 ppm) it was 45%; in the assay on Diaporthe citri (10 ppm), 100%; in the assay on Diaporthe citri (applied alone, 0.080 ppm), 0% and 3%. For the same molecule, the Efficacy in the assay on Diaporthe citri (applied alone, 0.4 ppm) was 0%; in the assay with Diaporthe citri (applied alone, 2 ppm), 52% and 53%; with Diaporthe citri (applied alone, 10 ppm) it was 100%. Moreover, the Efficacy % is given as 0% with Cercospora beticola (0.4 ppm); 100% in the assay with Cercospora beticola (2 ppm); 100% in the assay with Cercospora beticola (10 ppm); 1% in assay [1] (single compound, 0.08 ppm); 5% in assay [1] (single compound, 2 ppm); 100% in assay [1] (single compound, 10 ppm).
As for propineb, the Efficacy % in the assay on Alternaria alternate (0.8 ppm) was 18% and 11%; with Alternaria alternate (4 ppm), 32% and 21%; in the assay with Alternaria alternate (20 ppm) it was 66% and 71%; with Alternaria alternate (100 ppm), 92%; in assay [1] (single compound, 0.8 ppm), 4% and 6%; in assay [1] (single compound, 20 ppm), 100%. Moreover, the Efficacy % in assay [1] (single compound, 100.00 ppm) stood at 79%. The Efficacy was determined as 56% with Alternaria alternate (4 ppm); 73% in the assay with Alternaria alternate (20 ppm); 96% in the assay with Alternaria alternate (100 ppm); 0% in the assay on Cordana musae (0.8 ppm); 23% in the assay with Diaporthe citri (4 ppm); 100% in the assay with Diaporthe citri (20 ppm). Also, the Efficacy with Diaporthe citri (100 ppm) is 97%; in the assay on Diaporthe citri (applied alone, 0.8 ppm), 0%; with Diaporthe citri (applied alone, 20 ppm), 98% and 100%; in the assay on Diaporthe citri (applied alone, 100 ppm), 100%.
